Legend:
Format in all cases: in vivo
[1] = system: murine ischemia/reperfusion model of myocardial infarction; test: Mouse ischemia/reperfusion model: infarct size after remote topical TRP agonist
Protocol: A previously described mouse model of ischemia and reperfusion (I/R) injury in vivo was used (Ren et al. (2004) J. Surg Res. 121(1):120-129; Fan et al (2005) Circulation 111(14):1792-1799; Zhou et al (2007) Cardiovascular Research 75(3) 487-497; and Diwan et al (2007) J. Clinical Investigation 117(10):2825-2833, herein incorporated by reference in their entirety). Mice were anesthetized with sodium pentobarbital (90 mg/kg ip), intubated with PE 90 tubing and ventilated using a mouse miniventilator (Harvard Apparatus, Holliston, Mass.). All mice were continuously monitored by electrocardiography ([…] Sinus Rhythm Analyzer, Micro-Med Inc), and mice without evidence of ischemia and timely reperfusion were excluded from the studies. A lateral thoracotomy (1.5 cm incision between the second and third ribs was performed to provide exposure of the left anterior descending coronary artery (LAD). Vascular bundles in the vicinity were coagulated using a microcoagulator (Medical Industries Inc, St. Petersburg Fla.). An 8-0 nylon suture was placed around the LAD 2-3 mm from the tip of the left auricle and a piece of soft silicon tubing (0.64 mm ID, 1.19 mm OD) was placed over the artery. Coronary occlusion was achieved by tightening and tying the suture. Coronary occlusion was for 45 minutes, unless indicated otherwise. At the end of the occlusion, the suture was untied and left in place. Ischemia was confirmed by visual observation of cyanosis and by continuous ECG monitoring (QRS complex widening, T wave inversion and ST segment changes); reperfusion was confirmed by reversal of these effects. Results of one such experiment are presented in FIG. 1, panel A. Mice were euthanized either 4 or 24 hours after reperfusion and infarct size determination and imaging were performed by previously described methods (Ren et al. (2004) J. Surg Res. 121(1):120-129 and Guo et al (1998) Am J. Physiology 275 (4 Pt 2):[…]-1387, herein incorporated by reference in their entirety). Mice were anesthetized with pentobarbital sodium (35 mg/kg iv) and euthanized with an intravenous bolus of KCl. The heart was excised and perfused with Krebs-Henseleit solution through an aortic cannula (22 or 23-gauge needle) using a Langerdorff apparatus. To delineate infarcted from viable myocardium, the heart was then perfused with a 1% solution of 2,3,5-triphenyltetrazolium chloride (TTC) in phosphate buffer (pH 7.4, 37° C.) at a pressure of […] (approx. 3 ml over 3 min). […] Infarct size was determined by the method of Fishbein et al (1981) Am Heart J 101(5):593-600, herein incorporated by reference in its entirety. […] Infarct size was determined as described elsewhere herein. […]

TRPV1 = biological target: T1, TRPV1 (Mus musculus, UniProt Q704Y3); test: Topical capsaicin before ischemia/reperfusion in wild-type vs TRPV1 knock-out mice; conditions: capsaicin topically administered to the abdomen prior to ischemia and reperfusion; FIG. 2E
T1 construct: data from wild-type mice topically treated with capsaicin administered to the abdomen prior to surgical induction of ischemia and reperfusion; from tissue; host or cells: Living wild-type mouse; abdominal skin nociceptors (C-fibers), in vivo
T1 sequence (Q704Y3 whole entry, the tested form may be a part): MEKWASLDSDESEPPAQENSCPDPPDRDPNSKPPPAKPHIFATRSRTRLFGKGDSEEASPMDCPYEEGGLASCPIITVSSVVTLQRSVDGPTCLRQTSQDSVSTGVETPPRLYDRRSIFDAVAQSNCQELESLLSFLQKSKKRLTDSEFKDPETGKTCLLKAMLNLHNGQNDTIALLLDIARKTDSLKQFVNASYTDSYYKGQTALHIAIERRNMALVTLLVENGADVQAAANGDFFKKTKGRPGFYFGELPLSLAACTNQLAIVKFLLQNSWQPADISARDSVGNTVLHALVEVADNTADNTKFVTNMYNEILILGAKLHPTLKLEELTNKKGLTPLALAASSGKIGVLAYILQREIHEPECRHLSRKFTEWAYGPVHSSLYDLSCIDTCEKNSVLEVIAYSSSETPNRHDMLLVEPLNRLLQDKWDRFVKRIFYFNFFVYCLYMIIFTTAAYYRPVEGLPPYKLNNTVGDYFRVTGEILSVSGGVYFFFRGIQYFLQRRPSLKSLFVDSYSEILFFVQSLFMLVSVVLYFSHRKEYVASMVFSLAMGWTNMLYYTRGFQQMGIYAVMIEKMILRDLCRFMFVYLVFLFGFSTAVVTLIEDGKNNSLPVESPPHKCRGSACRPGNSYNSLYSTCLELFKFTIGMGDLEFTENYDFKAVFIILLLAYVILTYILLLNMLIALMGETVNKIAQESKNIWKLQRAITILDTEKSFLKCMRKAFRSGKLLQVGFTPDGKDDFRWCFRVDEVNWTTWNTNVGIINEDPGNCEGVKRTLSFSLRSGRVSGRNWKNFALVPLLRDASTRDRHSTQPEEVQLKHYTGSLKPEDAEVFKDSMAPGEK
Excerpt: FIG. 2, panel E presents a graph of results obtained from wild-type (WT) and TRPV1 knock-out (TRPVKO) mice using topical capsaicin as the cardioprotective stimulus. Infarct size as a percent of risk region is presented on the y-axis. The first bar presents data from wild-type mice topically treated with capsaicin administered to the abdomen prior to surgical induction of ischemia and reperfusion (WT, Capsaicin, hatched bar). The second bar presents data from TRPV1 knockout mice topically treated with capsaicin administered to the abdomen prior to surgical induction of ischemia and reperfusion (TRPVKO, Capsaicin, dotted bar). The third bar presents data from TRPV1 knockout mice subjected to sham treatment prior to surgical induction of ischemia and reperfusion (TRPVKO No capsaicin, empty bar).
Mice were anesthetized with sodium pentobarbital (90 mg/kg ip), intubated with PE 90 tubing and ventilated using a mouse miniventilator (Harvard Apparatus, Holliston, Mass.). All mice were continuously monitored by electrocardiography (ECG) (DigiMed Sinus Rhythm Analyzer, Micro-Med Inc), and mice without evidence of ischemia and timely reperfusion were excluded from the studies. […]

[2] = system: murine ischemia/reperfusion model of myocardial infarction; test: Blockade of the cardioprotection by remote electrical stimulation in mouse ischemia/reperfusion model
Protocol: A previously described mouse model of ischemia and reperfusion (I/R) injury in vivo was used (Ren et al. (2004) J. Surg Res. 121(1):120-129; Fan et al (2005) Circulation 111(14):1792-1799; Zhou et al (2007) Cardiovascular Research 75(3) 487-497; and Diwan et al (2007) J. Clinical Investigation 117(10):2825-2833, herein incorporated by reference in their entirety). Mice were anesthetized with sodium pentobarbital (90 mg/kg ip), intubated with PE 90 tubing and ventilated using a mouse miniventilator (Harvard Apparatus, Holliston, Mass.). All mice were continuously monitored by electrocardiography (ECG) (DigiMed Sinus Rhythm Analyzer, Micro-Med Inc), and mice without evidence of ischemia and timely reperfusion were excluded from the studies.
A lateral thoracotomy (1.5 cm incision between the second and third ribs was performed to provide exposure of the left anterior descending coronary artery (LAD). Vascular bundles in the vicinity were coagulated using a microcoagulator (Medical Industries Inc, St. Petersburg Fla.). An 8-0 nylon suture was placed around the LAD 2-3 mm from the tip of the left auricle and a piece of soft silicon tubing (0.64 mm ID, 1.19 mm OD) was placed over the artery. Coronary occlusion was achieved by tightening and tying the suture. Coronary occlusion was for 45 minutes, unless indicated otherwise. At the end of the occlusion, the suture was untied and left in place. Ischemia was confirmed by visual observation of cyanosis and by continuous ECG monitoring (QRS complex widening, T wave inversion and ST segment changes); reperfusion was confirmed by reversal of these effects.
Mice were euthanized either 4 or 24 hours after reperfusion and infarct size determination and imaging were performed by previously described methods (Ren et al. (2004) J. Surg Res. 121(1):120-129 and Guo et al (1998) Am J. Physiology 275 (4 Pt 2):H1375-1387, herein incorporated by reference in their entirety). Mice were anesthetized with pentobarbital sodium (35 mg/kg iv) and euthanized with an intravenous bolus of KCl. The heart was excised and perfused with Krebs-Henseleit solution through an aortic cannula (22 or 23-gauge needle) using a Langerdorff apparatus. To delineate infarcted from viable myocardium, the heart was then perfused with a 1% solution of 2,3,5-triphenyltetrazolium chloride (TTC) in phosphate buffer (pH 7.4, 37° C.) at a pressure of […] (approx. 3 ml over 3 min). To delineate the occluded-reperfused coronary vascular bed, the coronary artery was then tied at the site of the previous occlusion and the aortic root was perfused with a 5% solution of phthalo blue dye in normal saline. […] Infarct size was determined by the method of Fishbein et al (1981) Am Heart J 101(5):593-600, herein incorporated by reference in its entirety. […]

## COc1cc(CNC(=O)CCCC/C=C/C(C)C)ccc1O [capsaicin, (6E)-N-[(4-Hydroxy-3-methoxyphenyl)methyl]-8-methyl-6-nonenamide]
[1]; remote pre-conditioning, stimulus given 15 minutes prior to the ischemia, abdominal topical, vs sham, n=6, P<0.01
  reduction of infarct size (infarct size as a percent of the risk region): 85%
[1]; remote pre-treatment prior to ischemia/reperfusion, vs sham, FIG. 1C
  infarct size as a percent of the risk region: substantial reduction in infarct size
[1]; topical application during ischemia (conditioning) or after reperfusion (postCON), vs sham, p<0.01, FIG. 10
  infarct size as a percent of risk area: significantly reduces infarct size
TRPV1
  infarct size as a percent of risk region, WT vs TRPVKO: reduced myocardial infarct size as compared to TRPVKO mice

## COc1ccc2c(c[n+](C)c3c4cc5c(cc4ccc23)OCO5)c1OC [chelerythrine]
[2]; chelerythrine plus ES vs vehicle plus ES, FIG. 3C
  inhibition of ischemia-related tissue damage (infarct size as a percentage of risk region): reduced inhibition of ischemia-related tissue damage

## CCN(CC)CC(=O)Nc1c(C)cccc1C [lidocaine]
[2]; 2% lidocaine prior to electrical stimulation (ES) and ischemia, vs vehicle ES, FIG. 2A
  infarct size as a percent of risk region: significantly higher percentage of risk region than infarction size in vehicle and ES treated mice
[2]; 10 μl lidocaine (2%) s.c. pre-treatment, 45 min occlusion
  cardioprotective effect of the remote electrical stimulation: no significant cardioprotection relative to controls

## CCCN(CCC)S(=O)(=O)c1ccc(C(=O)O)cc1 [probenecid]
[1]; topical probenecid application vs sham/control animals, p<0.07, FIG. 11
  infarct size as a percent of risk region: significantly reduced

## CC(C)NCC(O)COc1cccc2ccccc12 (stereo not drawn) [propanolol]
[2]; propanolol plus ES vs vehicle plus ES, FIG. 3B
  infarct size as a percentage of risk region: significantly higher than infarct size in control mice treated only with the vehicle and electrically stimulated

From US9216171B2, “Methods of preventing ischemic injury using peripheral nociceptive stimulation” (University of Cincinnati, priority 2009, dated 2015)
